Source: paper PMC6760264 (Journal of medicinal chemistry, 2019)

Biological target: T1, NTMT1 (Homo sapiens, UniProt Q9BV86)
T1 sequence (Q9BV86 1-223): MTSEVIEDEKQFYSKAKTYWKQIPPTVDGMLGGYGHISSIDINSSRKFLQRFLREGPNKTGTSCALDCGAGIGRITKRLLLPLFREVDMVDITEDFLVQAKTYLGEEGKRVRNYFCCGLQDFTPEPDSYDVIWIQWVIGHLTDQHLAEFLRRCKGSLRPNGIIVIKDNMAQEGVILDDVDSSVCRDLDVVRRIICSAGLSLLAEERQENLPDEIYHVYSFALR
Test: SAHH-coupled fluorescence assay of NTMT1 inhibition
Assay type: biochemical
Details: at 10 μM

## Nc1ncnc2c1ncn2[C@@H]1O[C@H](CN(CCCN2CCC[C@H]2C(=O)O)CC[C@H](N)C(=O)O)[C@@H](O)[C@H]1O [Compound 14, (3-(((S)-3-Amino-3-carboxypropyl)(((2R,3S,4R,5S)-5-(6-amino-9H-purin-9-yl)-3,4-dihydroxytetrahydrofuran-2-yl)-methyl)amino)propyl)-l-proline]
  inhibition against NTMT1: did not show any significant inhibition
